Measured values from ChEMBL document CHEMBL1152687, “Synthesis and biological evaluation of the metabolites of 2-(1-{3-[(6-chloronaphthalen-2-yl)sulfonyl]propanoyl}piperidin-4-yl)-5-methyl-1,2-dihydro-3H-imidazo[1,5-c]imidazol-3-one” (Bioorg Med Chem, 2009).

Legend:
[1] = biological target: Coagulation factor X (Homo sapiens, UniProt P00742); experiment: Inhibition of human factor 10a by para-nitroanilide release assay
[2] = AUC (0 to 10 hrs) in cynomolgus monkey at 1 mg/kg, po; format: ADME, organism-based, Macaca fascicularis; parameters: time < 10 hr, dose 1 mg/kg, route oral; settings: plasma
[3] = AUC in cynomolgus monkey at 1 mg/kg, po; format: ADME, organism-based, Macaca fascicularis; parameters: dose 1 mg/kg, route oral; settings: plasma
[4] = biological target: Tissue-type plasminogen activator (Homo sapiens, UniProt P00750); experiment: Inhibition of human tissue plasminogen activator by para-nitroanilide release assay
Chain of Tissue-type plasminogen activator (P00750 whole entry): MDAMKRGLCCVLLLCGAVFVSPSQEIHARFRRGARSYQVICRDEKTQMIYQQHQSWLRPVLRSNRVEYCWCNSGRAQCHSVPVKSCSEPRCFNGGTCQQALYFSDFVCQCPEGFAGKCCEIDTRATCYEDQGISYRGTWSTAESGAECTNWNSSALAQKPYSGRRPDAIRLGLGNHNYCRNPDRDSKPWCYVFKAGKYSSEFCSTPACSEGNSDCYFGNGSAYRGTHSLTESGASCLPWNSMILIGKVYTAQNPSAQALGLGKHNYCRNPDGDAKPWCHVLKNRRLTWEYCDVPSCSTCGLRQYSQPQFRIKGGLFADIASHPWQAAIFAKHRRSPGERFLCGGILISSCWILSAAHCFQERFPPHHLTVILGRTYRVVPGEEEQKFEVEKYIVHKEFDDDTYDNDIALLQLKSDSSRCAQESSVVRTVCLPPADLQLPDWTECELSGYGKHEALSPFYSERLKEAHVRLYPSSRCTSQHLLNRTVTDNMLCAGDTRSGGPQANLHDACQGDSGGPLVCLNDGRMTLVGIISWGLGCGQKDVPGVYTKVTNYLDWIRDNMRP

[5] = Plasma concentration in cynomolgus monkey at 1 mg/kg, po after 1 hr; format: ADME, organism-based, Macaca fascicularis; parameters: dose 1 mg/kg, route oral
[6] = Plasma concentration in cynomolgus monkey at 1 mg/kg, po after 4 hrs; format: ADME, organism-based, Macaca fascicularis; parameters: dose 1 mg/kg, route oral
[7] = biological target: Prothrombin (Homo sapiens, UniProt P00734); experiment: Inhibition of human thrombin by para-nitroanilide release assay
[8] = Mean residence time in cynomolgus monkey at 1 mg/kg, po; format: ADME, organism-based, Macaca fascicularis; parameters: dose 1 mg/kg, route oral; settings: in vivo
[9] = Total clearance in cynomolgus monkey at 0.1 mg/kg, iv; format: ADME, organism-based, Macaca fascicularis; parameters: dose 0.1 mg/kg, route intravenous; settings: in vivo
[10] = Volume of distribution at steady state in cynomolgus monkey at 0.1 mg/kg, iv; format: ADME, organism-based, Macaca fascicularis; parameters: dose 0.1 mg/kg, route intravenous; settings: in vivo, read-out: Vdss
[11] = Cmax in cynomolgus monkey at 1 mg/kg, po; format: ADME, organism-based, Macaca fascicularis; parameters: dose 1 mg/kg, route oral; settings: in vivo
[12] = biological target: Plasminogen (Homo sapiens, UniProt P00747); experiment: Inhibition of human plasmin by para-nitroanilide release assay
Chain of Plasminogen (P00747 97-580 limits assumed): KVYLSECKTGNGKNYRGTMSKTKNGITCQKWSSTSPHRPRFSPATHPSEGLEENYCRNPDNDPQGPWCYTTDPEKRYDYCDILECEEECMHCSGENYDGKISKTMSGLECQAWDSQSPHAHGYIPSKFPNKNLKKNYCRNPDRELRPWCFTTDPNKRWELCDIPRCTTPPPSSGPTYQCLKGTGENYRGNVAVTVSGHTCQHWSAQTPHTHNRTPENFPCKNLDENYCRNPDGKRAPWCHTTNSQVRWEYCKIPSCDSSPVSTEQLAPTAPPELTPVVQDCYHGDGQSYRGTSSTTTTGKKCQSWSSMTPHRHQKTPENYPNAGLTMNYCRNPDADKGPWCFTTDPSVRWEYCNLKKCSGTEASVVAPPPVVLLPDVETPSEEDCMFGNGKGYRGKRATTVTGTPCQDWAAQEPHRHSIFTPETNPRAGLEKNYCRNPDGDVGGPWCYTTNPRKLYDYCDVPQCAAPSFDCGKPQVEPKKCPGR
Chain of Plasminogen (P00747 581-810 limits assumed): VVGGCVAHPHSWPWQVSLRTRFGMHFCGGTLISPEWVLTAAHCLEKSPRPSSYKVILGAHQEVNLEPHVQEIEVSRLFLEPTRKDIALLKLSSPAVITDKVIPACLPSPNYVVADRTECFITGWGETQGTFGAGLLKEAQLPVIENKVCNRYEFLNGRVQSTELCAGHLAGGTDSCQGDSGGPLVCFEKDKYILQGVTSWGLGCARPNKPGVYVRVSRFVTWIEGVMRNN

[13] = Plasma concentration in cynomolgus monkey at 1 mg/kg, po after 2 hrs; format: ADME, organism-based, Macaca fascicularis; parameters: dose 1 mg/kg, route oral
[14] = biological target: Trypsin (Homo sapiens, UniProt P07477+P07478+P35030); experiment: Inhibition of human trypsin by para-nitroanilide release assay; format: protein assay
[15] = Oral bioavailability in cynomolgus monkey at 1 mg/kg, po; format: ADME, organism-based, Macaca fascicularis; settings: in vivo
[16] = Plasma concentration in cynomolgus monkey at 1 mg/kg, po after 10 hrs; format: ADME, organism-based, Macaca fascicularis; parameters: dose 1 mg/kg, route oral

Chain of Coagulation factor X (P00742 41-179 limits assumed): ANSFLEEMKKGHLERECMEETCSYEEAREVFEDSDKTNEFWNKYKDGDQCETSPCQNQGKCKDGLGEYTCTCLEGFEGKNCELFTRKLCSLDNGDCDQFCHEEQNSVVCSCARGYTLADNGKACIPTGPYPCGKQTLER
Chain of Coagulation factor X (P00742 235-488 limits assumed): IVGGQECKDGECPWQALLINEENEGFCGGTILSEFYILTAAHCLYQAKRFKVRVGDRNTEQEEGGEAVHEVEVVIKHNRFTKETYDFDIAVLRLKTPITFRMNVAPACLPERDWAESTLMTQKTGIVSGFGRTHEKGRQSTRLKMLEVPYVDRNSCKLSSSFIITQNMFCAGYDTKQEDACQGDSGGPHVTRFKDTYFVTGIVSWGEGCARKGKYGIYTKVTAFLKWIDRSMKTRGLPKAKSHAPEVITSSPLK

Compound | IC50 [1] | AUC(0-t) at 10 h [2] | concentration at 1 h [5] | concentration at 4 h [6] | concentration at 2 h [13] | concentration at 10 h [16] | further results
O=C(O)CCS(=O)(=O)c1ccc2cc(Cl)ccc2c1 | > 5 µM |  |  |  |  |  | 
NC1CCN(C(=O)CCS(=O)(=O)c2ccc3cc(Cl)ccc3c2)CC1 | > 5 µM |  |  |  |  |  | 
O=C(CCS(=O)(=O)c1ccc2cc(Cl)ccc2c1)N1CCC(N2Cc3cnc(CO)n3C2=O)CC1 |  | 107 ng·h/mL | 16.6 ng/mL | 13.3 ng/mL | 25 ng/mL |  | AUC [3]: 470 ng·h/mL; Ki [4]: > 60 µM; Ki [7]: 7.8 µM; MRT [8]: 7.56 h; clearance [9]: 11.9 mL/min/kg; Vd [10]: 0.588 L/kg; Cmax [11]: 60.1 ng/mL; Ki [12]: > 60 µM; Ki [14]: > 60 µM; bioavailability [15]: 32.3%
O=S(O)c1ccc2cc(Cl)ccc2c1 | > 5 µM |  |  |  |  |  | 

Continued, in another order:

IC50 [1] | AUC(0-t) at 10 h [2] | concentration at 1 h [5] | concentration at 4 h [6] | concentration at 2 h [13] | concentration at 10 h [16] | Compound | further results
0.93 µM |  |  |  |  |  | Cc1ncc2n1C(=O)N(C1CCN(C(=O)C(=O)CS(=O)(=O)c3ccc4cc(Cl)ccc4c3)CC1)C2 | 
 | 54.6 ng·h/mL | 0.8 ng/mL | 91 ng/mL | 4.4 ng/mL | 3.6 ng/mL | Cc1ncc2n1C(=O)N(C1CCN(C(=O)[C@@H](O)CS(=O)(=O)c3ccc4cc(Cl)ccc4c3)CC1)C2 | 
 | 44.2 ng·h/mL | 2.7 ng/mL | 6.5 ng/mL | 6.8 ng/mL | 1.8 ng/mL | Cc1ncc2n1C(=O)N(C1CCN(C(=O)[C@H](O)CS(=O)(=O)c3ccc4cc(Cl)ccc4c3)CC1)C2 | AUC [3]: 307 ng·h/mL; Ki [4]: > 60 µM; Ki [7]: 1.9 µM; MRT [8]: 7.05 h; clearance [9]: 14.2 mL/min/kg; Vd [10]: 0.719 L/kg; Cmax [11]: 30.5 ng/mL; Ki [12]: > 60 µM; Ki [14]: > 60 µM; bioavailability [15]: 25.4%
 | 583 ng·h/mL | 92.8 ng/mL | 65.9 ng/mL | 132 ng/mL | 9.9 ng/mL | Cc1ncc2n1C(=O)N(C1CCN(C(=O)CCS(=O)(=O)c3ccc4cc(Cl)ccc4c3)CC1)C2 | 
